Results published in PubChem BioAssay (NCI).
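Assay format: 96-well plates, 48-hour exposure. TGI marks complete inhibition of growth.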

What was measured:
Test in all cases: NCI anticancer screen, dose series, 48 h
SNB-75 CNS = system: SNB-75 CNS
HT29 colon = system: HT29 colon
T-47D breast = system: T-47D breast
A498 renal = system: A498 renal
BT-549 breast = system: BT-549 breast
PC-3 prostate = system: PC-3 prostate
SW-620 colon = system: SW-620 colon
MALME-3M melanoma = system: MALME-3M melanoma
SNB-19 CNS = system: SNB-19 CNS
ACHN renal = system: ACHN renal
M14 melanoma = system: M14 melanoma
CAKI-1 renal = system: CAKI-1 renal
HCC-2998 colon = system: HCC-2998 colon
786-0 renal = system: 786-0 renal
HCT-116 colon = system: HCT-116 colon
RXF 393 renal = system: RXF 393 renal
OVCAR-4 ovarian = system: OVCAR-4 ovarian
HL-60(TB) leukemia = system: HL-60(TB) leukemia
TK-10 renal = system: TK-10 renal
SR leukemia = system: SR leukemia
SK-MEL-2 melanoma = system: SK-MEL-2 melanoma
RPMI-8226 leukemia = system: RPMI-8226 leukemia
MDA-N = system: MDA-N
SK-MEL-28 melanoma = system: SK-MEL-28 melanoma
HCT-15 colon = system: HCT-15 colon
EKVX NSCLC = system: EKVX NSCLC
NCI-H23 lung = system: NCI-H23 lung
SF-295 CNS = system: SF-295 CNS
OVCAR-3 ovarian = system: OVCAR-3 ovarian
HS 578T breast = system: HS 578T breast
UO-31 renal = system: UO-31 renal
IGROV1 ovarian = system: IGROV1 ovarian
MDA-MB-435 = system: MDA-MB-435
UACC-62 melanoma = system: UACC-62 melanoma
NCI/ADR-RES ovarian = system: NCI/ADR-RES ovarian
COLO 205 colon = system: COLO 205 colon
NCI-H226 lung = system: NCI-H226 lung
U251 CNS = system: U251 CNS
OVCAR-5 ovarian = system: OVCAR-5 ovarian
DU-145 prostate = system: DU-145 prostate
NCI-H460 lung = system: NCI-H460 lung
MCF7 breast = system: MCF7 breast
LOX IMVI melanoma = system: LOX IMVI melanoma
NCI-H522 lung = system: NCI-H522 lung
A549 NSCLC = system: A549 NSCLC
CCRF-CEM leukemia = system: CCRF-CEM leukemia
K-562 leukemia = system: K-562 leukemia
HOP-62 NSCLC = system: HOP-62 NSCLC
MOLT-4 leukemia = system: MOLT-4 leukemia
UACC-257 melanoma = system: UACC-257 melanoma
SF-539 CNS = system: SF-539 CNS
OVCAR-8 ovarian = system: OVCAR-8 ovarian
SN12C renal = system: SN12C renal
KM12 colon = system: KM12 colon
SF-268 CNS = system: SF-268 CNS
SK-OV-3 ovarian = system: SK-OV-3 ovarian
SK-MEL-5 melanoma = system: SK-MEL-5 melanoma
HOP-92 NSCLC = system: HOP-92 NSCLC

`O=c1[nH]nc(-c2ccc3ccccc3c2)[nH]1` was tested, and the TGI (SNB-75 CNS) was > 100 µM, the TGI (HT29 colon) was > 100 µM and the TGI (T-47D breast) was > 100 µM. For the same compound, the TGI (A498 renal) was > 100 µM, the TGI (BT-549 breast) was > 100 µM and the TGI (PC-3 prostate) was > 100 µM. For the same compound, the TGI (SW-620 colon) was > 100 µM, the TGI (MALME-3M melanoma) was > 100 µM and the TGI (SNB-19 CNS) was > 100 µM. For the same compound, the TGI (ACHN renal) was > 100 µM, the TGI (M14 melanoma) was > 100 µM and the TGI (CAKI-1 renal) was > 100 µM. For the same compound, the TGI (HCC-2998 colon) was > 100 µM, the TGI (786-0 renal) was > 100 µM and the TGI (HCT-116 colon) was > 100 µM. The TGI (RXF 393 renal) was > 100 µM, the TGI (OVCAR-4 ovarian) was > 100 µM and the TGI (HL-60(TB) leukemia) was > 100 µM. The TGI (TK-10 renal) was > 100 µM, the TGI (SR leukemia) was > 100 µM and the TGI (SK-MEL-2 melanoma) was > 100 µM. The TGI (RPMI-8226 leukemia) was > 100 µM, the TGI (MDA-N) was > 100 µM and the TGI (SK-MEL-28 melanoma) was > 100 µM. For the same compound, the TGI (HCT-15 colon) was > 100 µM, the TGI (EKVX NSCLC) was 64.4 µM and the TGI (NCI-H23 lung) was > 100 µM. For the same compound, the TGI (SF-295 CNS) was > 100 µM, the TGI (OVCAR-3 ovarian) was > 100 µM and the TGI (HS 578T breast) was 24.2 µM. The TGI (UO-31 renal) was > 100 µM, the TGI (IGROV1 ovarian) was > 100 µM and the TGI (MDA-MB-435) was > 100 µM. The TGI (UACC-62 melanoma) was > 100 µM, the TGI (NCI/ADR-RES ovarian) was > 100 µM and the TGI (COLO 205 colon) was > 100 µM. For the same compound, the TGI (NCI-H226 lung) was > 100 µM, the TGI (U251 CNS) was > 100 µM and the TGI (OVCAR-5 ovarian) was > 100 µM. The TGI (DU-145 prostate) was > 100 µM, the TGI (NCI-H460 lung) was > 100 µM and the TGI (MCF7 breast) was > 100 µM. For the same compound, the TGI (LOX IMVI melanoma) was > 100 µM, the TGI (NCI-H522 lung) was > 100 µM and the TGI (A549 NSCLC) was > 100 µM. The TGI (CCRF-CEM leukemia) was > 100 µM, the TGI (K-562 leukemia) was > 100 µM and the TGI (HOP-62 NSCLC) was > 100 µM. The TGI (MOLT-4 leukemia) was > 100 µM, the TGI (UACC-257 melanoma) was > 100 µM and the TGI (SF-539 CNS) was > 100 µM. For the same compound, the TGI (OVCAR-8 ovarian) was > 100 µM, the TGI (SN12C renal) was > 100 µM and the TGI (KM12 colon) was > 100 µM. For the same compound, the TGI (SF-268 CNS) was > 100 µM.

In the case of `Fc1ccc(F)c(C=NC23CC4CC(CC(C4)C2)C3)c1`, the TGI (SNB-75 CNS) is reported as > 10 µM, the TGI (HT29 colon) is reported as > 10 µM and the TGI (T-47D breast) is reported as > 10 µM. The TGI (A498 renal) was > 10 µM, the TGI (BT-549 breast) was > 10 µM and the TGI (PC-3 prostate) was > 10 µM. For the same compound, the TGI (SW-620 colon) was > 10 µM, the TGI (MALME-3M melanoma) was > 10 µM and the TGI (SNB-19 CNS) was > 10 µM. The TGI (ACHN renal) was > 10 µM, the TGI (M14 melanoma) was > 10 µM and the TGI (CAKI-1 renal) was > 10 µM. For the same compound, the TGI (HCC-2998 colon) was > 10 µM, the TGI (786-0 renal) was > 10 µM and the TGI (HCT-116 colon) was > 10 µM. The TGI (RXF 393 renal) was > 10 µM, the TGI (OVCAR-4 ovarian) was > 10 µM and the TGI (HL-60(TB) leukemia) was 6.94 µM. For the same compound, the TGI (TK-10 renal) was > 10 µM, the TGI (SR leukemia) was > 10 µM and the TGI (SK-MEL-2 melanoma) was > 10 µM. The TGI (RPMI-8226 leukemia) was > 10 µM, the TGI (SK-OV-3 ovarian) was > 10 µM and the TGI (MDA-N) was > 10 µM. The TGI (SK-MEL-28 melanoma) was > 10 µM, the TGI (HCT-15 colon) was > 10 µM and the TGI (EKVX NSCLC) was > 10 µM. For the same compound, the TGI (NCI-H23 lung) was > 10 µM, the TGI (SK-MEL-5 melanoma) was > 10 µM and the TGI (SF-295 CNS) was > 10 µM. For the same compound, the TGI (OVCAR-3 ovarian) was > 10 µM, the TGI (HS 578T breast) was > 10 µM and the TGI (UO-31 renal) was > 10 µM. For the same compound, the TGI (IGROV1 ovarian) was > 10 µM, the TGI (HOP-92 NSCLC) was > 10 µM and the TGI (NCI/ADR-RES ovarian) was > 10 µM. The TGI (COLO 205 colon) was > 10 µM, the TGI (NCI-H226 lung) was > 10 µM and the TGI (U251 CNS) was > 10 µM. The TGI (OVCAR-5 ovarian) was > 10 µM, the TGI (DU-145 prostate) was > 10 µM and the TGI (NCI-H460 lung) was > 10 µM. For the same compound, the TGI (MCF7 breast) was > 10 µM, the TGI (LOX IMVI melanoma) was > 10 µM and the TGI (NCI-H522 lung) was > 10 µM. For the same compound, the TGI (A549 NSCLC) was > 10 µM, the TGI (CCRF-CEM leukemia) was > 10 µM and the TGI (K-562 leukemia) was > 10 µM. The TGI (HOP-62 NSCLC) was > 10 µM, the TGI (MOLT-4 leukemia) was > 10 µM and the TGI (UACC-257 melanoma) was > 10 µM. For the same compound, the TGI (SF-539 CNS) was > 10 µM, the TGI (OVCAR-8 ovarian) was > 10 µM and the TGI (SN12C renal) was > 10 µM. For the same compound, the TGI (KM12 colon) was > 10 µM and the TGI (SF-268 CNS) was > 10 µM.
